Measurements reported in US7179806B2, “Δ1-pyrrolines used as pesticides” (Bayer Cropscience AG, priority 2000, dated 2007).

tested on: larvae of the mustard beetle (Phaedon cochleariae); assay: Phaedon larvae test (cabbage leaves dipped); type: in vivo; conditions: active compound concentration 1000 ppm
Description: (§1) Phaedon Larvae Test To produce a suitable preparation of active compound, 1 part by weight of active compound is mixed with the stated amounts of solvent and emulsifier, and the concentrate is diluted with emulsifier-containing water to the desired concentration. Cabbage leaves (Brassica oleracea) are treated by being dipped into the preparation of active compound of the desired concentration and are populated with larvae of the mustard beetle (Phaedon cochleariae) whilst the leaves are still moist. After the desired period of time, the kill in % is determined. 100% means that all beetle larvae have been killed; 0% means that none of the beetle larvae have been killed.

| SMILES | Kill rate in % after 7 d |
| --- | --- |
| CC(C)Oc1ncc(-c2ccc(C3CCC(c4c(F)cccc4F)=N3)cc2)cn1 (stereo not drawn) [drawing 270] | 100% |
| Fc1cccc(F)c1C1=NC(c2ccc(-c3ccc(C(F)(F)F)cn3)cc2)CC1 (stereo not drawn) [drawing 271] | 100% |
| CC(C)Sc1ncc(-c2ccc(C3CCC(c4c(F)cccc4F)=N3)cc2)cn1 (stereo not drawn) [drawing 272] | 100% |
| Fc1cccc(F)c1C1=NC(c2ccc(-c3ccc(OCC(F)(F)F)nc3)cc2)CC1 (stereo not drawn) [drawing 273] | 100% |
| CCCN(CC)c1ncc(-c2ccc(C3CCC(c4c(F)cccc4F)=N3)cc2)cn1 (stereo not drawn) [drawing 274] | 100% |
| CC1CC(C)CN(c2ncc(-c3ccc(C4CCC(c5c(F)cccc5F)=N4)cc3)cn2)C1 (stereo not drawn) [drawing 275] | 100% |
| Fc1cccc(F)c1C1=NC(c2ccc(-c3cnc(N4CCCCC4)nc3)cc2)CC1 (stereo not drawn) [drawing 276] | 100% |

tested on: army worm (Spodoptera frugiperda) caterpillars; assay: Spodoptera frugiperda test (cabbage leaves dipped); type: in vivo; conditions: 168 h, active compound concentration 500 ppm, after 7 d, read-out: Kill rate in % after 7 d
Description: as §1, with “Spodoptera frugiperda” for “Phaedon Larvae”, “army worm (Spodoptera frugiperda) caterpillars” for “larvae of the mustard beetle (Phaedon cochleariae)”, “caterpillars” for “beetle larvae”

| SMILES | pest or weed control at 500 ppm |
| --- | --- |
| O=C1CCCN1c1ccc(-c2ccc(C3CCC(c4c(F)cccc4F)=N3)cc2)nn1 (stereo not drawn) [drawing 285] | 100% |
| CN(c1ccc(-c2ccc(C3CCC(c4c(F)cccc4F)=N3)cc2)nn1)S(=O)(=O)C(F)(F)F (stereo not drawn) [drawing 286] | 100% |
| CCCCN(CCCC)c1ccc(-c2ccc(C3CCC(c4c(F)cccc4F)=N3)cc2)nn1 (stereo not drawn) [drawing 287] | 100% |

same assay, conditions: 168 h, active compound concentration 1000 ppm, after 7 d, read-out: Kill rate in % after 7 d

| SMILES | pest or weed control at 1000 ppm |
| --- | --- |
| CCCCCCN(CCCCCC)c1ccc(-c2ccc(C3CCC(c4c(F)cccc4F)=N3)cc2)nn1 (stereo not drawn) | 100% |
| Fc1cccc(F)c1C1=NC(c2ccc(-c3ccc(Cl)cn3)cc2)CC1 (stereo not drawn) [drawing 280] | 100% |
| CN(C)c1ncc(-c2ccc(C3CCC(c4c(F)cccc4F)=N3)cc2)cn1 (stereo not drawn) [drawing 281] | 100% |
| CC(C)Oc1ccc(-c2ccc(C3CCC(c4c(F)cccc4F)=N3)cc2)nn1 (stereo not drawn) [drawing 282] | 100% |
| CC(C)Sc1ccc(-c2ccc(C3CCC(c4c(F)cccc4F)=N3)cc2)nn1 (stereo not drawn) [drawing 283] | 100% |
| Fc1cccc(F)c1C1=NC(c2ccc(-c3cnc(N4CCOCC4)nc3)cc2)CC1 (stereo not drawn) [drawing 284] | 100% |
| CCCCCCC(=O)N(c1ccc(-c2ccc(C3CCC(c4c(F)cccc4F)=N3)cc2)nn1)C1CCCC1 (stereo not drawn) [drawing 289] | 100% |
| CCCCCCN(C(=O)C(C)(C)C)c1ccc(-c2ccc(C3CCC(c4c(F)cccc4F)=N3)cc2)nn1 (stereo not drawn) [drawing 290] | 100% |
| CC(C)COc1ncc(-c2ccc(C3CCC(c4c(F)cccc4F)=N3)cc2)cn1 (stereo not drawn) [drawing 291] | 100% |
| CC1CC(C)CN(c2ncc(-c3ccc(C4CCC(c5c(F)cccc5F)=N4)cc3)cn2)C1 (stereo not drawn) [drawing 292] | 100% |

tested on: greenhouse red spider mite (tetranychus urticae); assay: Tetranychus test (OP-resistant/dip treatment); type: in vivo; conditions: active compound concentration 100 ppm, OP-resistant, dip treatment
Description: Tetranychus Test (OP Resistant/Dip Treatment)
To produce a suitable preparation of active compound, 1 part by weight of active compound is mixed with the stated amounts of solvent and emulsifier, and the concentrate is diluted with emulsifier-containing water to the desired concentration.
Bean plants (Phaseolus vulgaris) which are heavily infested by all stages of the greenhouse red spider mite (tetranychus urticae) are dipped into a preparation of active compound of the desired concentration.
After the desired period of time, the effect in % is determined. 100% means that all spider mites have been killed; 0% means that none of the spider mites have been killed.

| SMILES | Kill rate in % after 7 d |
| --- | --- |
| Fc1cccc(F)c1C1=NC(c2ccc(-c3cncnc3)cc2)CC1 (stereo not drawn) [drawing 293] | 98% |
| Fc1cccc(F)c1C1=NC(c2ccc(-c3ccc(Cl)cn3)cc2)CC1 (stereo not drawn) [drawing 294] | 98% |
| CN(C)c1ncc(-c2ccc(C3CCC(c4c(F)cccc4F)=N3)cc2)cn1 (stereo not drawn) [drawing 295] | 98% |
| CC(C)Oc1ncc(-c2ccc(C3CCC(c4c(F)cccc4F)=N3)cc2)cn1 (stereo not drawn) [drawing 296] | 98% |
| CC(C)Sc1ccc(-c2ccc(C3CCC(c4c(F)cccc4F)=N3)cc2)nn1 (stereo not drawn) [drawing 297] | 98% |
| Fc1cccc(F)c1C1=NC(c2ccc(-c3cnc(N4CCOCC4)nc3)cc2)CC1 (stereo not drawn) [drawing 298] | 98% |
| Fc1cccc(F)c1C1=NC(c2ccc(-c3ccc(Cl)nc3)cc2)CC1 (stereo not drawn) [drawing 299] | 98% |
